According to publication PMC3555856, “In vitro α-glucosidase inhibitory activity of phenolic constituents from aerial parts of Polygonum hyrcanicum” (DARU Journal of Pharmaceutical Sciences, 2012):
Where two headings read alike, the source gives them in different places.

Assays:
[1] = target: T1, α-glucosidase (EC 3.2.1.20, from baker's yeast) (Saccharomyces cerevisiae, UniProt P53341); assay: biochemical; settings: pH 6.9, 37°C
T1 construct: purchased Sigma-Aldrich Chemie (Germany)
Protocol: Column chromatography was carried out using silica gel (230–400 mesh) obtained from Merck (Germany), RP-18 (230–400 mesh) and Sephadex LH-20 procured from Fluka (Switzerland). Pre-coated silica gel 60 F254 plates and silica gel 60 RP-18 F254S plates (Merck, Germany) were used for TLC. Spots were observed under UV at 254 and 366 nm and spraying with anisaldehyde-H2SO4 reagent (Sigma-Aldrich Chemie, Germany) and heating at 120°C for 5 min. HPLC separations were performed on a Knauer Wellchrom system connected to a photodiode array detector (Smart line system, Germany). ^1H and ^13C NMR spectra were measured on a Bruker Avance DRX 500 spectrometer operating at 500 MHz for ^1H and 125 MHz for ^13C using a 5 mm PABBO probehead. α-glucosidase (EC 3.2.1.20, from baker’s yeast, 77 U/mg), p-nitrophenyl-α-d-glucopyranoside, vitamin E 97% and 2, 2-diphenyl-picrylhydrazyl (DPPH) were obtained from Sigma-Aldrich Chemie (Germany). Sodium carbonate, FeCl3, sodium acetate, ferrous sulfate [FeSO4.7H2O], gallic acid, 2, 4, 6-tripyridyl-s-triazine (TPTZ) solution, and Folin-Ciocalteu reagent were all obtained from Merck (Germany).
α-Glucosidase inhibitory activities were evaluated according to the chromogenic method described by McCue et al. (2005), with some modifications. The enzyme solution contained 20 μl α-glucosidase (0.5 unit/ml) and 120 μl 0.1 M phosphate buffer (pH 6.9). p-Nitrophenyl-α-D-glucopyranoside (5 mM) in the same buffer (pH 6.9) was used as a substrate solution. Ten microliters of test samples, dissolved in DMSO at various concentrations, were mixed with enzyme solution in microplate wells and incubated for 15 min at 37°C. Twenty microliters of substrate solution were added and incubated for an additional 15 min. The reaction was terminated by adding 80 μl of 0.2 M sodium carbonate solution. Absorbance of the wells was measured with a microplate reader at 405 nm, while the reaction system without plant extracts was used as control. […] Each experiment was conducted in triplicate. The enzyme inhibitory rates of samples were calculated as follows:
Inhibition%=[(control absorption-sample absorption)/control absorption)]×100.
The IC50 values of samples were calculated and reported as the mean ± standard deviation (SD) of three experiments.

[2] = FRAP assay (ferric-reducing ability); settings: 37°C, 10 minutes, 593 nm
Protocol: Antioxidant activities of plant extracts were evaluated by monitoring their ferric-reducing abilities. Freshly prepared FRAP reagent contained 5 ml FeCl3 (20 mM) plus 5 ml of a 10 mM TPTZ solution in 40 mM HCl and 50 ml of 300 mM acetate buffer (pH = 3.6). One hundred microliters of the samples, dissolved in methanol at various concentrations, were mixed with 3 ml FRAP reagent and incubated at 37°C for 10 minutes; the absorptions at 593 nm were recorded. A calibration curve was generated in the range of 125–750 μM ferrous sulfate (FeSO4.7H2O). Vitamin E was used as a positive control and the results were expressed as mmol ferrous ion equivalent per gram of extracts.

[3] = DPPH free radical scavenging activity; settings: absorbance at 517 nm after 30 minutes
Protocol: The antioxidant activities of the extracts were determined with the DPPH assay according to an established protocol. Extract solutions of 500, 250, 100, and 50 μg/ml were prepared in methanol. Each test tube contained 1 ml of the samples and 2 ml freshly prepared DPPH solution of 40 μg/ml in methanol. […] Absorbance of the mixtures were recorded at 517 nm after 30 minutes, against the blank covets of DPPH solution. Vitamin E was used as a positive control. All samples were assayed in triplicate and IC50 values were calculated.

[4] = mean ± SD of three experiments, read-out: α-Glucosidase inhibitory activity IC50
[5] = α-Glucosidase inhibitory activity IC50, mean ± SD of three experiments

T1 sequence (P53341 whole entry): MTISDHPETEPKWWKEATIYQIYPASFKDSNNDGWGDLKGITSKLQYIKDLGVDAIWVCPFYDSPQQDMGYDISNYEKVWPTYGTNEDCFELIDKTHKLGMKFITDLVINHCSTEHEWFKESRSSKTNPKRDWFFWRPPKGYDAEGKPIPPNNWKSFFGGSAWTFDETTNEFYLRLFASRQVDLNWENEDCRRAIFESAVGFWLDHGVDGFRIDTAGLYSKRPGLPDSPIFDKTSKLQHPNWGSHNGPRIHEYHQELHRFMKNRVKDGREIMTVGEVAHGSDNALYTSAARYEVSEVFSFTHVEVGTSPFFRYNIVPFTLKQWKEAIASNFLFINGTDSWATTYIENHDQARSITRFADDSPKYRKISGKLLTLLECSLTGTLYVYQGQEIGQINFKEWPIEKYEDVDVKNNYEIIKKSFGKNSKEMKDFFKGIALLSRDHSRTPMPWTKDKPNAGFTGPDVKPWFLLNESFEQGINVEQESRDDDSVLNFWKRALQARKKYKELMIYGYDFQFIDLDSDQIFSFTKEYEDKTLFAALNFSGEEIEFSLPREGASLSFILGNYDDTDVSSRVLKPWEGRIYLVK

| Compound | IC50 [1, 4] | also measured |
| --- | --- | --- |
| CC(=O)OC[C@@H]1O[C@@H](Oc2c(-c3cc(O)c(O)c(O)c3)oc3cc(O)cc(O)c3c2=O)[C@H](O)[C@H]1OC(C)=O [Compound 6, myricetin 3-O-α-L-(3",5"-diacetyl-arabinofuranoside)] | 5.8 ± 2.8 µM | – |
| CC(=O)OC1C(CO)OC(Oc2c(-c3ccc(O)c(O)c3)oc3cc(O)cc(O)c3c2=O)C1O [Compound 5, quercetin 3-O-α-L-(3"-acetyl-arabinofuranoside)] | 4.8 ± 1.9 µM | – |
| O=c1c(O[C@@H]2O[C@@H](CO)[C@H](O)[C@H]2O)c(-c2ccc(O)c(O)c2)oc2cc(O)cc(O)c12 [Compound 13, quercetin 3-O-α-L-arabinofuranoside] | – | IC50 [1, 5]: 7.6 ± 0.9 µM |
| O=C(/C=C/c1ccc(O)c(O)c1)NCCc1ccc(O)cc1 [Compound 3, N-trans-caffeoyl-tyramine] | 0.3 ± 0.3 µM | – |
| Oc1cc(O)c2c(c1)OC(c1cc(O)c(O)c(O)c1)C(O)C2 (single isomer, unassigned; (-)) [Compound 8, (-) gallocatechin] | – | IC50 [1, 5]: 1 ± 0.3 µM |
| Oc1cc(O)c2c(c1)OC(c1ccc(O)c(O)c1)C(O)C2 (single isomer, unassigned; (+)) [Compound 7, (+) catechin] | 6.6 ± 3.5 µM | – |
| O=c1c(O)c(-c2cc(O)c(O)c(O)c2)oc2cc(O)cc(O)c12 [Compound 2, myricetin] | – | IC50 [1, 5]: 1.3 ± 0.6 µM |
| O=c1c(OC2OC(CO)C(O)C(O)C2O)c(-c2cc(O)c(O)c(O)c2)oc2cc(O)cc(O)c12 [Compound 9, myricetin 3-O-β-D-galactopyranoside] | 4.8 ± 0.8 µM | – |
| vitamin E | – | FRAP assay [2]: 2.40 ± 0.76 mmol ferrous ion equivalent/g; FRAP assay ([2]; listed as vitamin E): 2.4 mmol ferrous ion equivalent/g; DPPH assay IC50 [3]: 14.12 ± 0.9 µg/mL; DPPH assay IC50 ([3]; listed as vitamin E): 14.1 µg/mL |
| CC(=O)OC[C@@H]1O[C@@H](Oc2c(-c3ccc(O)c(O)c3)oc3cc(O)cc(O)c3c2=O)[C@H](O)[C@H]1OC(C)=O [Compound 4, quercetin 3-O-α-L-(3",5"-diacetyl-arabinofuranoside)] | 4.9 ± 1.5 µM | – |
| O=c1c(O[C@@H]2O[C@@H](CO)[C@H](O)[C@H]2O)c(-c2cc(O)c(O)c(O)c2)oc2cc(O)cc(O)c12 [Compound 12, myricetin 3-O-α-L-arabinofuranoside] | 4.2 ± 2.9 µM | – |
